Test results from patent publication US20130136809A1, “7-HYRDROXYFRULLANOLIDE ITS ANALOGS FOR PREVENTION CONTROL AND TREATMENT OF METABOLIC DISORDERS” (LAILA NUTRACEUTICALS, priority 2009, published 2013).

Tests used:
[1] = tested on: 3T3-L1 pre-adipocyte cells; assay: Inhibition of lipid accumulation in differentiated adipocytes (Oil Red O); assay type: cell-based, mouse; conditions: 3T3-L1 adipocytes; for inhibition at 2.5 µg/mL: 2.5 μg/mL
Protocol: One hundred thousand 3T3-L1 […] pre-adipocyte cells in Dulbecco's Modified Eagles Medium (DMEM) containing 10% Fetal Bovine Serum (FBS) were taken into each well of a 24-well plate and incubated for 48 h at 37° C. and 5% CO2. The differentiation of pre-adipocyte cells was initiated in a differentiation medium containing 10 μg/ml insulin, 1.0 μM dexamethasone, and 0.5 mM isobutylmethylxanthine (IBMX) for 48 h. After this the medium was replaced by DMEM containing 10 ug/ml insulin and incubated for 3 days. Then the differentiating cells were treated with […] of 7-hydroxyfrullanolide (1) or different natural analogs (structure numbers 3 to 11) or semi-synthetic analogs (structure numbers 12 to 25) of 7-HF. The cells were maintained in the medium for another 3-5 days. The cells incubated with 0.1% DMSO were considered as the vehicle control. After the incubation period, cells were washed with phosphate buffered saline (PBS) and fixed with 10% buffered formalin for 1 h at room temperature. One small aliquot of cell suspension was separated for cell counting in hemocytometer chamber. Fixed cells were stained with Oil Red O solution to measure the cellular neutral lipid accumulation. Briefly, cells were washed with PBS, fixed with 10% buffered formalin and stained with Oil Red O solution (0.5 g in 100 ml isopropanol) for […]. After removing the staining solution, the dye retained in the cells will be eluted into isopropanol and OD measured at 550 nm. The inhibition of fat accumulation in the treated cells was compared with the mock treated differentiated adipocytes. The treated and control cells were also analyzed and compared for inhibition of lipid accumulation visually under microscope and recorded digitally in suitable image capture system. The anti-adipogenic activity by 7-HF is depicted in Figure I and the percentage inhibition of lipid accumulation shown by 7-HF and its natural and semi-synthetic analogs is summarized in Table-1.

[2] = tested on: 3T3-L1 pre-adipocyte cells; assay: Pro-lipolytic activity in differentiated adipocytes (free glycerol release); assay type: cell-based, mouse; conditions: increase in glycerol release
Protocol: The lipolytic activity was assessed in mature adipocytes as per the procedure of Chemicon International, USA, by measuring free glycerol secreted into the culture medium. One hundred thousand 3T3-L1 […] pre-adipocyte cells in Dulbecco's Modified Eagles Medium (DMEM) containing 10% Fetal Bovine Serum (FBS) were taken into each well of a 24-well plate and incubated for 48 h at 37° C. and 5% CO2. The differentiation of pre-adipocyte cells was initiated in a differentiation medium containing 10 µg/ml insulin, 1.0 µM dexamethasone, and 0.5 mM isobutylmethylxanthine (IBMX). The cells were differentiated for 5 days and then the culture medium was removed. The monolayer was washed twice with wash solution (Hank's balanced salt solution), and then 250 µL of incubation solution (Hank's balanced salt solution plus 2% bovine serum albumin) was added to the wells in triplicate in presence or absence of 7-hydroxyfrullanolide or its analogs or the extracts containing 7-HF, and the cells were further incubated for 16 h. To measure lipolysis, 200 μL of free glycerol assay reagent was added to 25 µL of culture supernatants and controls containing glycerol standard. The samples and the controls were incubated for 15 min, and the absorbance was read at 540 nm. A standard curve constructed from the glycerol was used to calculate the concentration of free glycerol in the culture supernatants. The percentage increase in glycerol concentration in the sample solutions compared to the control containing the known concentrations of glycerol corresponds to the percentage acceleration of lipolysis by test compound.

Compound: CC1=C2[C@@H]3OC(=O)C(CN4CCNCC4)[C@]3(O)CC[C@@]2(C)CCC1 (stereo partly drawn) [Compound-22, (3aR,5aR,9bS)-3,3a,4,5,5a,6,7,8-octahydro-3a-hydroxy-5a,9-dimethyl-3-((piperazin-1-yl)methyl)naphtho[1,2-b]furan-2(9bH)-one]
- inhibition at 1 µg/mL ([1]; Homo sapiens, 1.0 μg/mL): 15%

Compound: C=C1C(=O)O[C@H]2C3=C(C)C(=O)CC[C@]3(C)CC[C@@]12O [Compound-11, (3aR,5aS,9bS)-3a,4,5,5a,6,7-hexahydro-3a-hydroxy-5a,9-dimethyl-3-methylenenaphtho[1,2-b]furan-2,8(3H,9bH)-dione]
- inhibition at 2 µg/mL ([1]; Homo sapiens, 2.0 μg/mL): 8%

Compound: C=C1C(=O)O[C@H]2C3=C(C)C(O)CC[C@]3(C)CC[C@@]12O (stereo partly drawn) [Compound-10, (3aR,5aR,9bS)-3,3a,4,5,5a,6,7,8-octahydro-3a,8-dihydroxy-5a,9-dimethyl-3-methylenenaphtho[1,2-b]furan-2(9bH)-one]
- inhibition at 2 µg/mL ([1]; Homo sapiens, 2.0 μg/mL): 45%

Compound: C=C1C(=O)OC2C3=C(C)CCCC3(C)CCC12 (centres unmarked) [Compound-1, 3,3a,4,5,5a,6,7,8-octahydro-5a,9-dimethyl-3-methylenenaphtho[1,2-b]furan-2(9bH)-one]
- % acceleration of lipolysis ([2]; 10 μg/mL): 44.6%
- inhibition at 2.5 µg/mL ([1]; Homo sapiens): 19.4%

Compound: CC1=CCC[C@]2(C)CCC3=C(C=O)C(=O)OC3=C12 [Compound-12, (R)-2,4,5,5a,6,7-hexahydro-5a,9-dimethyl-2-oxonaphtho[1,2-b]furan-3-carbaldehyde]
- % acceleration of lipolysis ([2]; 5 μg/mL): 45.2%
- inhibition at 2 µg/mL ([1]; Homo sapiens, 2.0 μg/mL): 55%

Compound: CC1=CCC[C@]2(C)CCC3=C(CBr)C(=O)OC3=C12 [Compound-14, (R)-3-(bromomethyl)-5,5a,6,7-tetrahydro-5a,9-dimethylnaphtho[1,2-b]furan-2(4H)-one]
- inhibition at 2 µg/mL ([1]; Homo sapiens, 2.0 μg/mL): 14%

Compound: CC1(O)CCC[C@]2(C)CCC3=C(CN4CCCCC4)C(=O)OC3=C12 (stereo partly drawn) [Compound-20, (5aR)-5,5a,6,7,8,9-hexahydro-9-hydroxy-5a,9-dimethyl-3-((piperidin-1-yl)methyl)naphtho[1,2-b]furan-2(4H)-one]
- inhibition at 2 µg/mL ([1]; Homo sapiens, 2.0 μg/mL): 7%

Compound: C=C1C(=O)OC2C1(O)CCC1(C)CCCC3(C)OC213 (centres unmarked) [Compound-13, 4,5-epoxy-7-hydroxyfrullanolide]
- % acceleration of lipolysis ([2]; 5 μg/mL): 52.8%
- % inhibition of lipid accumulation ([1]; 2.0 μg/mL): 79.7%

Compound: CC1=C2[C@@H]3OC(=O)C(CN4CCOCC4)[C@]3(O)CC[C@@]2(C)CCC1 (stereo partly drawn) [Compound-17, (3aR,5aR,9bS)-3,3a,4,5,5a,6,7,8-octahydro-3a-hydroxy-5a,9-dimethyl-3-(morpholinomethyl)naphtho[1,2-b]furan-2(9bH)-one]
- inhibition at 2 µg/mL ([1]; Homo sapiens, 2.0 μg/mL): 36.2%

Compound: Piperazine Bis-7-hydroxyfrullanolide [Compound-23]
- % inhibition of lipid accumulation ([1]; 1.0 μg/mL): 15.2%

Compound: C=C1C(=O)O[C@@H]2[C@@]1(O)CC[C@@]1(C)CCCC(=C)[C@]21OO [Compound-3, (3aR,5aR,9aR,9bR)-decahydro-9a-hydroperoxy-3a-hydroxy-5a-methyl-3,9-dimethylenenaphtho[1,2-b]furan-2(9bH)-one]
- % acceleration of lipolysis ([2]; 5 μg/mL): 39.6%
- inhibition at 2.5 µg/mL ([1]; Homo sapiens): 40.5%

Compound: CC1=C2[C@@H]3OC(=O)C(CN4CCCCC4)[C@]3(O)CC[C@@]2(C)CCC1 (stereo partly drawn) [Compound-19, (3aR,5aR,9bS)-3,3a,4,5,5a,6,7,8-octahydro-3a-hydroxy-5a,9-dimethyl-3-((piperidin-1-yl)methyl)naphtho[1,2-b]furan-2(9bH)-one]
- inhibition at 2 µg/mL ([1]; Homo sapiens, 2.0 μg/mL): 23.3%

Compound: CC1=C2[C@@H]3OC(=O)C(CN4CCOCC4)[C@]3(O)CC[C@@]2(C)CCC1O (stereo partly drawn) [Compound-18, (3aR,5aR,9bS)-3,3a,4,5,5a,6,7,8-octahydro-3a,8-dihydroxy-5a,9-dimethyl-3-(morpholinomethyl)naphtho[1,2-b]furan-2(9bH)-one]
- inhibition at 2.5 µg/mL ([1]; Homo sapiens): 133%
